Earlier results on 1 compound are cited in article PMC5997364, “OG716: Designing a fit-for-purpose lantibiotic for the treatment of Clostridium difficile infections” (PLoS ONE, 2018).

In brackets after ≈: the same amount, converted by molar mass.

Details of the data set: method as in earlier work. Conditions: cited from earlier work.

On to `CCc1c(Cl)c(O)c(Cl)c(O)c1C(=O)O[C@H]1[C@H](O)[C@H](OC)[C@H](OC/C2=C\C=C\C[C@H](O)/C(C)=C/[C@H](CC)[C@@H](O[C@@H]3OC(C)(C)[C@@H](OC(=O)C(C)C)[C@H](O)[C@@H]3O)/C(C)=C/C(C)=C/C[C@@H]([C@@H](C)O)OC2=O)O[C@@H]1C` [fidaxomycin], for which the solubility in water is on record as 0.0125 mg/mL (≈ 11.8 µM).
